Measurements published in US20170189504A1, “NOVEL PEPTIDES AND COMBINATION OF PEPTIDES FOR USE IN IMMUNOTHERAPY AGAINST VARIOUS CANCERS” (immatics biotechnologies GmbH, priority 2015, published 2017).

The substances below were run on HLA-A*02 (assay: MHC binding assay, UV-ligand exchange with β2m ELISA, HLA-A*02 (Table 20)). Details: binding to HLA-A*02 ranged by peptide exchange yield (UV-ligand exchange, β2m ELISA).
Parameters: species or system human
From the text: Candidate peptides for T cell based therapies according to the present invention were further tested for their MHC binding capacity (affinity). The individual peptide-MHC complexes were produced by UV-ligand exchange, where a UV-sensitive peptide is cleaved upon UV-irradiation, and exchanged with the peptide of interest as analyzed. Only peptide candidates that can effectively bind and stabilize the peptide-receptive MHC molecules prevent dissociation of the MHC complexes. To determine the yield of the exchange reaction, an ELISA was performed based on the detection of the light chain ((β2m) of stabilized MHC complexes. The assay was performed as generally described in Rodenko et al. (Rodenko et al., 2006).
96 well MAXISorp plates (NUNC) were coated over night with 2 ug/ml streptavidin in PBS at room temperature, washed 4× and blocked for 1 h at 37° C. in 2% BSA containing blocking buffer. Refolded HLA-A*02:01/MLA-001 monomers served as standards, covering the range of 15-500 ng/ml. Peptide-MHC monomers of the UV-exchange reaction were diluted 100 fold in blocking buffer. Samples were incubated for 1 h at 37° C., washed four times, incubated with 2 ug/ml HRP conjugated anti-β2m for 1 h at 37° C., washed again and detected with TMB solution that is stopped with […]. Absorption was measured at 450 nm. Candidate peptides that show a high exchange yield (preferably higher than 50%, most preferred higher than 75%) are generally preferred for a generation and production of antibodies or fragments thereof, and/or T cell receptors or fragments thereof, as they show sufficient avidity to the MHC molecules and prevent dissociation of the MHC complexes.

| Substance | Peptide exchange |
| --- | --- |
| 86 (SVDSHFQEV; listed as Homo sapiens) [compound 86] | ++ (20%-49% = ++) |
| 30 (AMIEEVFEA; listed as Homo sapiens) [compound 30] | ++ (20%-49% = ++) |
| 70 (LLLGDSALYL; listed as Homo sapiens) [compound 70] | +++ (50%-75% = +++) |
| 258 (LLSERFINV; listed as Homo sapiens) [compound 258] | ++++ (≧75% = ++++) |
| 76 (AVGPVHNSV; listed as Homo sapiens) [compound 76] | ++ (20%-49% = ++) |
| 142 (ILVEGISTV; listed as Homo sapiens) [compound 142] | +++ (50%-75% = +++) |
| 65 (SVVPDVRSV; listed as Homo sapiens) [compound 65] | ++ (20%-49% = ++) |
| 120 (VTPVTVSAV; listed as Homo sapiens) [compound 120] | + (<20% = +) |
| 145 (YLWATIQRI; listed as Homo sapiens) [compound 145] | +++ (50%-75% = +++) |
| 48 (QVIEDSTGV; listed as Homo sapiens) [compound 48] | ++ (20%-49% = ++) |
| 87 (TIYKDFVYI; listed as Homo sapiens) [compound 87] | ++ (20%-49% = ++) |
| 133 (ALLPRLHQL; listed as Homo sapiens) [compound 133] | ++++ (≧75% = ++++) |
| 41 (ALFENTPKA; listed as Homo sapiens) [compound 41] | ++ (20%-49% = ++) |
| 15 (YLDLSHNQL; listed as Homo sapiens) [compound 15] | +++ (50%-75% = +++) |
| 103 (YLVSEIFKA; listed as Homo sapiens) [compound 103] | +++ (50%-75% = +++) |
| 114 (QLIQTLHAV; listed as Homo sapiens) [compound 114] | +++ (50%-75% = +++) |
| 72 (FLTAINYLL; listed as Homo sapiens) [compound 72] | +++ (50%-75% = +++) |
| 73 (YTLREVDTV; listed as Homo sapiens) [compound 73] | ++ (20%-49% = ++) |
| 68 (SLSNRLYYL; listed as Homo sapiens) [compound 68] | +++ (50%-75% = +++) |
| 9 (FLVDGSYSI; listed as Homo sapiens) [compound 9] | +++ (50%-75% = +++) |

| Substance | Peptide exchange |
| --- | --- |
| 46 (SQFPLPLAV; listed as Homo sapiens) [compound 46] | ++ (20%-49% = ++) |
| 106 (FINDSIVYL; listed as Homo sapiens) [compound 106] | +++ (50%-75% = +++) |
| 237 (ALAPHLDDA; listed as Homo sapiens) [compound 237] | +++ (50%-75% = +++) |
| 242 (WLYGEDHQI; listed as Homo sapiens) [compound 242] | ++ (20%-49% = ++) |
| 111 (AIVDLIHDI; listed as Homo sapiens) [compound 111] | ++ (20%-49% = ++) |
| 60 (ALFAPLVHL; listed as Homo sapiens) [compound 60] | +++ (50%-75% = +++) |
| 10 (GIAGSLKTV; listed as Homo sapiens) [compound 10] | +++ (50%-75% = +++) |
| 45 (SLTEVSLPL; listed as Homo sapiens) [compound 45] | +++ (50%-75% = +++) |
| 25 (TMDSVLVTV; listed as Homo sapiens) [compound 25] | +++ (50%-75% = +++) |
| 155 (LLNPVVEFV; listed as Homo sapiens) [compound 155] | +++ (50%-75% = +++) |
| 245 (SLLDLPLSL; listed as Homo sapiens) [compound 245] | ++++ (≧75% = ++++) |
| 153 (FISERVEVV; listed as Homo sapiens) [compound 153] | ++++ (≧75% = ++++) |
| 132 (ILGEVLAQL; listed as Homo sapiens) [compound 132] | +++ (50%-75% = +++) |
| 121 (FTIFRTISV; listed as Homo sapiens) [compound 121] | +++ (50%-75% = +++) |
| 236 (STIAILNSV; listed as Homo sapiens) [compound 236] | +++ (50%-75% = +++) |
| 152 (MMVGDLLEV; listed as Homo sapiens) [compound 152] | +++ (50%-75% = +++) |
| 254 (KLQGKLPEL; listed as Homo sapiens) [compound 254] | ++ (20%-49% = ++) |
| 53 (KMVGLVVAI; listed as Homo sapiens) [compound 53] | +++ (50%-75% = +++) |
| 264 (KLFPQETLFL; listed as Homo sapiens) [compound 264] | +++ (50%-75% = +++) |
| 64 (SLFPDSLIV; listed as Homo sapiens) [compound 64] | ++ (20%-49% = ++) |

| Substance | Peptide exchange |
| --- | --- |
| 262 (FMVDKAIYL; listed as Homo sapiens) [compound 262] | +++ (50%-75% = +++) |
| 47 (ALLERGELFV; listed as Homo sapiens) [compound 47] | +++ (50%-75% = +++) |
| 78 (TVVTRLDEI; listed as Homo sapiens) [compound 78] | ++ (20%-49% = ++) |
| 24 (TLDEKVAEL; listed as Homo sapiens) [compound 24] | +++ (50%-75% = +++) |
| 253 (ALAELIDNSL; listed as Homo sapiens) [compound 253] | +++ (50%-75% = +++) |
| 66 (KLIFSVEAV; listed as Homo sapiens) [compound 66] | +++ (50%-75% = +++) |
| 88 (AQADHLPQL; listed as Homo sapiens) [compound 88] | ++ (20%-49% = ++) |
| 263 (VLLSEQGDVKL; listed as Homo sapiens) [compound 263] | ++ (20%-49% = ++) |
| 56 (FLHDEKEGIYI; listed as Homo sapiens) [compound 56] | +++ (50%-75% = +++) |
| 77 (TLIDEQDIPLV; listed as Homo sapiens) [compound 77] | +++ (50%-75% = +++) |
| 58 (YLLPLLPAL; listed as Homo sapiens) [compound 58] | +++ (50%-75% = +++) |
| 79 (VTFKEYVTV; listed as Homo sapiens) [compound 79] | ++ (20%-49% = ++) |
| 122 (GVVDPVHGV; listed as Homo sapiens) [compound 122] | ++ (20%-49% = ++) |
| 260 (ILLEKILSL; listed as Homo sapiens) [compound 260] | +++ (50%-75% = +++) |
| 85 (VLNDILVRA; listed as Homo sapiens) [compound 85] | +++ (50%-75% = +++) |
| 243 (FMADDIFSV; listed as Homo sapiens) [compound 243] | +++ (50%-75% = +++) |
| 49 (ALNIATHVL; listed as Homo sapiens) [compound 49] | +++ (50%-75% = +++) |
| 54 (VLNPLITAV; listed as Homo sapiens) [compound 54] | +++ (50%-75% = +++) |
| 257 (GLYTDPCGV; listed as Homo sapiens) [compound 257] | ++++ (≧75% = ++++) |
